# Source: BindingDB's records for doi:10.7270/Q2KP80MW (The Scripps Research Institute Molecular Screening Center, 2011)
# Target: T1, Peroxisome proliferator-activated receptor gamma (Homo sapiens, UniProt P37231)
# T1 sequence (P37231 whole entry): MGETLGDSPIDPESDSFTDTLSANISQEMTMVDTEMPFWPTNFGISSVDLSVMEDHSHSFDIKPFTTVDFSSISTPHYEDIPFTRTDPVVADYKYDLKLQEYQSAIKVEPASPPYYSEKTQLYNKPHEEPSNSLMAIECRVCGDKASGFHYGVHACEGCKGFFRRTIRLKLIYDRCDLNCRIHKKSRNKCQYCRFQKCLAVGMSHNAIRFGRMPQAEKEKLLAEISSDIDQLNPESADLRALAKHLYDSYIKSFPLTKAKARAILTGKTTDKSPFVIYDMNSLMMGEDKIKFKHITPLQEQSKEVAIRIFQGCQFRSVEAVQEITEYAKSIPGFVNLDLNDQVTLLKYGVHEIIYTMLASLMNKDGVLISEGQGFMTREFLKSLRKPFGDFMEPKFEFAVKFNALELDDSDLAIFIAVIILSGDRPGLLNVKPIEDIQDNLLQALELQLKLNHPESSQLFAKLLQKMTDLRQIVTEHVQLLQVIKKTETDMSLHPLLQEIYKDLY
# Assay: competitive ligand displacement at PPARg – biochemical, fluorescence polarization, PolarScreen, PPARg partial agonist project, dose response (AID 504453)
row,Compound,IC50
1,Cc1ccc2nc(N3C(=O)C(=O)C(C(=O)c4ccc(C)o4)C3c3ccco3)sc2c1 (centres undefined),22 µM
2,COc1ccc2nc(N3C(=O)C(=O)C(C(=O)c4ccco4)C3c3ccc(C)o3)sc2c1 (centres undefined),5 µM
3,"CCOc1ccc2nc(N3C(=O)C(=O)C(C(=O)c4ccco4)C3c3ccco3)sc2c1 (centres undefined) [1-(6-ethoxy-1,3-benzothiazol-2-yl)-2-(2-furanyl)-3-[2-furanyl(oxo)methyl]-4-hydroxy-2H-pyrrol-5-one]",3 µM
4,"Cc1ccc2nc(N3C(=O)C(=O)C(C(=O)c4ccco4)C3c3ccc(C)o3)sc2c1 (centres undefined) [3-[2-furanyl(oxo)methyl]-4-hydroxy-1-(6-methyl-1,3-benzothiazol-2-yl)-2-(5-methyl-2-furanyl)-2H-pyrrol-5-one;oxalic acid]",30 µM
